In ChEMBL document CHEMBL4507295 (2021):

What was measured:
[1] = tested on: Tyrosine-protein kinase ABL1 (Homo sapiens), P00519 [E255K]; conditions: Compound concentration 1000.0 nM
[2] = tested on: Tyrosine-protein kinase ABL1 (Homo sapiens), P00519 [F317L]; conditions: Compound concentration 1000.0 nM
[3] = tested on: Tyrosine-protein kinase ABL1 (Homo sapiens), P00519 [Y253F]; conditions: Compound concentration 1000.0 nM
[4] = target: Aurora kinase B (Homo sapiens) (UniProt Q96GD4); conditions: Compound concentration 1000.0 nM
[5] = target: Cytoplasmic tyrosine-protein kinase BMX (Homo sapiens) (UniProt P51813); conditions: Compound concentration 1000.0 nM
[6] = tested on: Serine/threonine-protein kinase B-raf (Homo sapiens), P15056 [V600E]; conditions: Compound concentration 1000.0 nM
[7] = target: Calcium/calmodulin-dependent protein kinase type 1B (Homo sapiens) (UniProt Q6P2M8); conditions: Compound concentration 1000.0 nM
[8] = target: Cyclin-dependent kinase 11A (Homo sapiens) (UniProt Q9UQ88); conditions: Compound concentration 1000.0 nM
[9] = target: Cyclin-dependent kinase 2 (Homo sapiens) (UniProt P24941); conditions: Compound concentration 1000.0 nM
[10] = target: Cyclin-dependent kinase 4 (Homo sapiens) (UniProt P11802); conditions: Compound concentration 1000.0 nM
[11] = target: Cyclin-dependent kinase-like 2 (Homo sapiens) (UniProt Q92772); conditions: Compound concentration 1000.0 nM
[12] = target: Casein kinase I isoform alpha-like (Homo sapiens) (UniProt Q8N752); conditions: Compound concentration 1000.0 nM
[13] = target: Dual specificity tyrosine-phosphorylation-regulated kinase 1A (Homo sapiens) (UniProt Q13627); conditions: Compound concentration 1000.0 nM
[14] = target: Dual specificity tyrosine-phosphorylation-regulated kinase 2 (Homo sapiens) (UniProt Q92630); conditions: Compound concentration 1000.0 nM
[15] = tested on: Epidermal growth factor receptor (Homo sapiens), P00533 [G719C]; conditions: Compound concentration 1000.0 nM
[16] = target: Ephrin type-B receptor 1 (Homo sapiens) (UniProt P54762); conditions: Compound concentration 1000.0 nM
[17] = target: Mitogen-activated protein kinase 4 (Homo sapiens) (UniProt P31152); conditions: Compound concentration 1000.0 nM
[18] = target: Fibroblast growth factor receptor 2 (Homo sapiens) (UniProt P21802); conditions: Compound concentration 1000.0 nM
[19] = target: Fibroblast growth factor receptor 4 (Homo sapiens) (UniProt P22455); conditions: Compound concentration 1000.0 nM
[20] = tested on: Hepatocyte growth factor receptor (Homo sapiens), P08581 [Y1235D]; conditions: Compound concentration 1000.0 nM
[21] = target: Mitogen-activated protein kinase kinase kinase 9 (Homo sapiens) (UniProt P80192); conditions: Compound concentration 1000.0 nM
[22] = target: Myosin-IIIa (Homo sapiens) (UniProt Q8NEV4); conditions: Compound concentration 1000.0 nM
[23] = target: Serine/threonine-protein kinase 38-like (Homo sapiens) (UniProt Q9Y2H1); conditions: Compound concentration 1000.0 nM
[24] = target: Serine/threonine-protein kinase Nek3 (Homo sapiens) (UniProt P51956); conditions: Compound concentration 1000.0 nM
[25] = target: Mitogen-activated protein kinase kinase kinase 14 (Homo sapiens) (UniProt Q99558); conditions: Compound concentration 1000.0 nM
[26] = target: Mitogen-activated protein kinase 11 (Homo sapiens) (UniProt Q15759); conditions: Compound concentration 1000.0 nM
[27] = target: Serine/threonine-protein kinase PAK 3 (Homo sapiens) (UniProt O75914); conditions: Compound concentration 1000.0 nM
[28] = target: Cyclin-dependent kinase 16 (Homo sapiens) (UniProt Q00536); conditions: Compound concentration 1000.0 nM
[29] = target: Platelet-derived growth factor receptor alpha (Homo sapiens) (UniProt P16234); conditions: Compound concentration 1000.0 nM
[30] = target: cAMP-dependent protein kinase catalytic subunit alpha (Homo sapiens) (UniProt P17612); conditions: Compound concentration 1000.0 nM
[31] = target: Serine/threonine-protein kinase PRP4 homolog (Homo sapiens) (UniProt Q13523); conditions: Compound concentration 1000.0 nM
[32] = target: Ribosomal protein S6 kinase alpha-4 (Homo sapiens) (UniProt O75676); conditions: Compound concentration 1000.0 nM
[33] = target: STE20-like serine/threonine-protein kinase (Homo sapiens) (UniProt Q9H2G2); conditions: Compound concentration 1000.0 nM
[34] = target: SNF-related serine/threonine-protein kinase (Homo sapiens) (UniProt Q9NRH2); conditions: Compound concentration 1000.0 nM
[35] = target: Serine/threonine-protein kinase 35 (Homo sapiens) (UniProt Q8TDR2); conditions: Compound concentration 1000.0 nM
[36] = target: STE20/SPS1-related proline-alanine-rich protein kinase (Homo sapiens) (UniProt Q9UEW8); conditions: Compound concentration 1000.0 nM
[37] = target: Serine/threonine-protein kinase ULK3 (Homo sapiens) (UniProt Q6PHR2); conditions: Compound concentration 1000.0 nM
[38] = target: 5-hydroxytryptamine receptor 1D (Homo sapiens) (UniProt P28221); conditions: Compound concentration 10.0 uM
[39] = target: T1, Muscarinic acetylcholine receptor M4 (Homo sapiens) (UniProt P08173); conditions: Compound concentration 10.0 uM
T1 sequence (whole entry): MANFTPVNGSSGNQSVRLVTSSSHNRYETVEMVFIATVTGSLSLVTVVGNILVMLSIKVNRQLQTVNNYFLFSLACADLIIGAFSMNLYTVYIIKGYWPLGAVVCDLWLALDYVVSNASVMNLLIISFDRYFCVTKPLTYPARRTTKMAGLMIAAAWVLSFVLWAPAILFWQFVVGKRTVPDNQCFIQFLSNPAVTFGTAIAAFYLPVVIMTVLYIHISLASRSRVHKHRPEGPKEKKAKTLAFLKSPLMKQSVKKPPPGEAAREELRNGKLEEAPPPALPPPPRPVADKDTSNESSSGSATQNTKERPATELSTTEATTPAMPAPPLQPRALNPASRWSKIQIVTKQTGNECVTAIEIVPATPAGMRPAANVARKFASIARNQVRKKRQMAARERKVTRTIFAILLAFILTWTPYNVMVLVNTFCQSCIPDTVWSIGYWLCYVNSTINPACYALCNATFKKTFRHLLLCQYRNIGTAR

Ribosomal protein S6 kinase alpha-4 (Homo sapiens), sequence (O75676 whole entry, looked up): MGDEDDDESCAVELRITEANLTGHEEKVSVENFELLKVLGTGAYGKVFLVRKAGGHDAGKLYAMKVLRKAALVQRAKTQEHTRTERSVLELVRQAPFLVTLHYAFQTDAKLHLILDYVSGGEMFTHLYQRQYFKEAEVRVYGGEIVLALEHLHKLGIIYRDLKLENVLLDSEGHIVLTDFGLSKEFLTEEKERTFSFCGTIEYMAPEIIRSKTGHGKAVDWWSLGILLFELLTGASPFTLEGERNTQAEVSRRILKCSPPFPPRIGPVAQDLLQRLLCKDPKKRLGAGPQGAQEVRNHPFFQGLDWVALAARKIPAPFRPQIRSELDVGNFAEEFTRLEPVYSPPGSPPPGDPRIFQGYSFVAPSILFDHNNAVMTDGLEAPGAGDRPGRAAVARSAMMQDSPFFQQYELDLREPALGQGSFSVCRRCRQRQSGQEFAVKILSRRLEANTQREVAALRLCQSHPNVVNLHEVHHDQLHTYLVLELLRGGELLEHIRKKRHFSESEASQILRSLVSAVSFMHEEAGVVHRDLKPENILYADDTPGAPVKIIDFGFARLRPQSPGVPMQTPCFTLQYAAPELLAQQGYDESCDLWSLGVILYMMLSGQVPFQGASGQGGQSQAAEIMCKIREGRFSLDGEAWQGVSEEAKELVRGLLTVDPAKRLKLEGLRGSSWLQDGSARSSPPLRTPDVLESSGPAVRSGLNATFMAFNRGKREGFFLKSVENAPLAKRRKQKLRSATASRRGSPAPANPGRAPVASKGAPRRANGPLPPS
Cyclin-dependent kinase 4 (Homo sapiens), sequence (P11802 whole entry): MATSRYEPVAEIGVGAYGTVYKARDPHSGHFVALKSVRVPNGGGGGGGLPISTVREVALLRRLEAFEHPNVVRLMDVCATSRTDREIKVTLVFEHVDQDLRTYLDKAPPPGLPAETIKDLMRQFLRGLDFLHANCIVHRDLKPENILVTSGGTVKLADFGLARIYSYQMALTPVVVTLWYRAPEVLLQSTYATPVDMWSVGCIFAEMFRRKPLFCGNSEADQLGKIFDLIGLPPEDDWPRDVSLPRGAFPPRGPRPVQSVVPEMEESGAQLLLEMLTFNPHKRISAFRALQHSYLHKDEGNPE
Calcium/calmodulin-dependent protein kinase type 1B (Homo sapiens), sequence (Q6P2M8 whole entry): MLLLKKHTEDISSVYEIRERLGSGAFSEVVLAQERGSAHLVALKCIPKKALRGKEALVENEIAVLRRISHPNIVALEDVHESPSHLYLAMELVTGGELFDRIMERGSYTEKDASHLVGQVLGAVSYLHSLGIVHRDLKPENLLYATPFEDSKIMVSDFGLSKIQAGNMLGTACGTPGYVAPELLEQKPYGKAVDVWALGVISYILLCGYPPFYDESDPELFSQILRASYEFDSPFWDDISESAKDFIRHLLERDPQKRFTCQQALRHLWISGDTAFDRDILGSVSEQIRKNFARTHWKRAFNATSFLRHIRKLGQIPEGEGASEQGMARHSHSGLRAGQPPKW
Serine/threonine-protein kinase 38-like (Homo sapiens), sequence (Q9Y2H1 2-464 limits assumed): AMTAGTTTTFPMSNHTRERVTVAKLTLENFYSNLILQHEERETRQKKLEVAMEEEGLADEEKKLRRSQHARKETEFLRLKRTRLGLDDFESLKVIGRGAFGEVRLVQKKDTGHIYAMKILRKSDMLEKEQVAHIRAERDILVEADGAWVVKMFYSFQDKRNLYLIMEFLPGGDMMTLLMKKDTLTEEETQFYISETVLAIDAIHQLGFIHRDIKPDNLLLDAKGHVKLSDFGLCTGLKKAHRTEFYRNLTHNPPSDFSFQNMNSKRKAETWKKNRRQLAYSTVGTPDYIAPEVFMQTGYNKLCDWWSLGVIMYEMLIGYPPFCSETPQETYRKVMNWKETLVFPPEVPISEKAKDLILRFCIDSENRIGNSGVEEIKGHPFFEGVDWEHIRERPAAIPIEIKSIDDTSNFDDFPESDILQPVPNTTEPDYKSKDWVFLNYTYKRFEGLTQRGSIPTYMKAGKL
STE20-like serine/threonine-protein kinase (Homo sapiens), sequence (Q9H2G2 whole entry, looked up): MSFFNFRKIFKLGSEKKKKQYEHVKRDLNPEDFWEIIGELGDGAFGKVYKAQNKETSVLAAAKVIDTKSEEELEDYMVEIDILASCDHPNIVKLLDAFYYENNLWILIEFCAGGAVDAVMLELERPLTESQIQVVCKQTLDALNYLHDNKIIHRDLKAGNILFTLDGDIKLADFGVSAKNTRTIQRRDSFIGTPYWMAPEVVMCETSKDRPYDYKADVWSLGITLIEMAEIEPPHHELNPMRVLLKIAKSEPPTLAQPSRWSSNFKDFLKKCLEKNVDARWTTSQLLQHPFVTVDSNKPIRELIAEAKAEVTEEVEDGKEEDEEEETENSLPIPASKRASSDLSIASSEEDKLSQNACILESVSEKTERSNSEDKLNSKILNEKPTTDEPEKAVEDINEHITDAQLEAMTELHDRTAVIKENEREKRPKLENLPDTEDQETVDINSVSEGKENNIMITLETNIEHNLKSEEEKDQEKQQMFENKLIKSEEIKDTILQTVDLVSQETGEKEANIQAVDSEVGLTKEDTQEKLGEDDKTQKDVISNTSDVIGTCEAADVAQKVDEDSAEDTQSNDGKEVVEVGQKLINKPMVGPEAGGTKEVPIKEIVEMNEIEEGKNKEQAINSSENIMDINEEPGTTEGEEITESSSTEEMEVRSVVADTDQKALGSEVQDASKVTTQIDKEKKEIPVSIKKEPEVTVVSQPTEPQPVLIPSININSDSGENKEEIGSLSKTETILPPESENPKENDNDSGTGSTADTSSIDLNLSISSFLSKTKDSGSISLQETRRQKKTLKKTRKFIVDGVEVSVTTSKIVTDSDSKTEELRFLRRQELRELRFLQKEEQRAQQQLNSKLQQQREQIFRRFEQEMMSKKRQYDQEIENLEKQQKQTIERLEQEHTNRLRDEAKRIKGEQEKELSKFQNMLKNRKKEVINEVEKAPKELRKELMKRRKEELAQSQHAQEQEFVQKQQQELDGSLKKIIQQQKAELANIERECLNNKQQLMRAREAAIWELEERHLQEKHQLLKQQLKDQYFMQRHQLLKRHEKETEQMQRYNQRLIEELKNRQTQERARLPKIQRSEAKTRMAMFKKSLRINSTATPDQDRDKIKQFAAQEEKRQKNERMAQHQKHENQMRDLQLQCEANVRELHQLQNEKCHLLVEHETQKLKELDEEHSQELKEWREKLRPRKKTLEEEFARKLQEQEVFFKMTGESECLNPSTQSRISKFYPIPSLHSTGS
Dual specificity tyrosine-phosphorylation-regulated kinase 2 (Homo sapiens), sequence (Q92630 whole entry): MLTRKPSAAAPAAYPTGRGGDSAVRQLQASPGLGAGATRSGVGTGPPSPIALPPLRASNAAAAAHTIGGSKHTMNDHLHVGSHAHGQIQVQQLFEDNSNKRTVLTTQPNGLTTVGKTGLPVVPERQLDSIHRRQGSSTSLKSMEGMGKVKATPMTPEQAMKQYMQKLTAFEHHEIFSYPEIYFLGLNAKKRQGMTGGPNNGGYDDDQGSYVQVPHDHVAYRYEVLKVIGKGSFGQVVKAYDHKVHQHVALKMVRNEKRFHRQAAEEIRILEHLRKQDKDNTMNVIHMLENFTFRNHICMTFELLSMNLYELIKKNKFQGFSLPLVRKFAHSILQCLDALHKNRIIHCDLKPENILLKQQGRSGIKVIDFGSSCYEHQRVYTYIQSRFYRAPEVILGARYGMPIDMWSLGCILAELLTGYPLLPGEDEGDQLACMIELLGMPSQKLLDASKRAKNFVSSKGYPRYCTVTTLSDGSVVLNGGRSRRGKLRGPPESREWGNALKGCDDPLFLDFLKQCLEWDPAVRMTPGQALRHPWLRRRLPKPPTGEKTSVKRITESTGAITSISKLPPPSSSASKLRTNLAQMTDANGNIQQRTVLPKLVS
Serine/threonine-protein kinase 35 (Homo sapiens), sequence (Q8TDR2 whole entry): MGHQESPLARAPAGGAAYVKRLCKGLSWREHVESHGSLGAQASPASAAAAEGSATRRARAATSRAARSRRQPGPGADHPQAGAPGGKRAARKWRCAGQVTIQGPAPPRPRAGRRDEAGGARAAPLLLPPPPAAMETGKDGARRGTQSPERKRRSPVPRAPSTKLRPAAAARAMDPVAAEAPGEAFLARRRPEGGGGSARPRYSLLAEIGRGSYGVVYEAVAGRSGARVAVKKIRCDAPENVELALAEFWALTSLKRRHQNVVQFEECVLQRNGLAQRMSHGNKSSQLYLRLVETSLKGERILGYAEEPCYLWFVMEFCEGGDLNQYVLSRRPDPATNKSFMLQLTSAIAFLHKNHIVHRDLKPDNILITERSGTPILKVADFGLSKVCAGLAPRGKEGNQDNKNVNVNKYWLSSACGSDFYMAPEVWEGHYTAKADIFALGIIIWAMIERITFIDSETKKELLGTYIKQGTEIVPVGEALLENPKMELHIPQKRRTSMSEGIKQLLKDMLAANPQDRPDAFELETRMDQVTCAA
Serine/threonine-protein kinase Nek3 (Homo sapiens), sequence (P51956 whole entry): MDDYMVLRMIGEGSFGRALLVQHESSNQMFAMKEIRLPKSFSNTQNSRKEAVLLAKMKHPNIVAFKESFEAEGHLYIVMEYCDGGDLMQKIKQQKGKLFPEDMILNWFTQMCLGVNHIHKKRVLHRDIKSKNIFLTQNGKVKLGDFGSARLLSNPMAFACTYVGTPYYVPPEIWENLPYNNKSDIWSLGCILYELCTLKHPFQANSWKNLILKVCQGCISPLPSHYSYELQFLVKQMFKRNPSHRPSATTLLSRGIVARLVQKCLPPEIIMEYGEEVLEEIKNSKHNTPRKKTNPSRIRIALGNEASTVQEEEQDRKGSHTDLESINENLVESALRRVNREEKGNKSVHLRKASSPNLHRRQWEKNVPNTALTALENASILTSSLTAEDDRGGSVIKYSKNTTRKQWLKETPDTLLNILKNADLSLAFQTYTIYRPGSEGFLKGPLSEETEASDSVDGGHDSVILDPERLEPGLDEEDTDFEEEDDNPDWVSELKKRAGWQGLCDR

N#CC1(c2ccccn2)CCN(Cc2cc(C(=O)N3CCCC3)c(=O)n3ccccc23)CC1
inactive: residual activity [1] 87% | residual activity [2] 100% | residual activity [3] 92% | residual activity [4] 92% | residual activity [5] 84% | residual activity [6] 99% | residual activity [7] 90% | residual activity [8] 93% | residual activity [9] 86% | residual activity [10] 91% | residual activity [11] 93% | residual activity [12] 91% | residual activity [13] 94% | residual activity [14] 100% | residual activity [15] 80% | residual activity [16] 91% | residual activity [17] 76% | residual activity [18] 91% | residual activity [19] 90% | residual activity [20] 97% | residual activity [21] 72% | residual activity [22] 80% | residual activity [23] 90% | residual activity [24] 83% | residual activity [25] 100% | residual activity [26] 76% | residual activity [27] 100% | residual activity [28] 100% | residual activity [29] 97% | residual activity [30] 88% | residual activity [31] 78% | residual activity [32] 100% | residual activity [33] 100% | residual activity [34] 91% | residual activity [35] 96% | residual activity [36] 75% | residual activity [37] 96% | inhibition [38] 14.6% | inhibition [39] -8.87%

N#CC1(c2ccccn2)CCN(Cc2cc(C(=O)O)c(=O)n3ccccc23)CC1 [MSD-M1PAM]
inactive: residual activity [1] 100% | residual activity [2] 84% | residual activity [3] 72% | residual activity [4] 76% | residual activity [5] 88% | residual activity [6] 100% | residual activity [7] 100% | residual activity [8] 100% | residual activity [9] 100% | residual activity [10] 94% | residual activity [11] 100% | residual activity [12] 100% | residual activity [13] 97% | residual activity [14] 95% | residual activity [15] 100% | residual activity [16] 100% | residual activity [17] 100% | residual activity [18] 100% | residual activity [19] 100% | residual activity [20] 99% | residual activity [21] 92% | residual activity [22] 100% | residual activity [23] 80% | residual activity [24] 66% | residual activity [25] 73% | residual activity [26] 100% | residual activity [27] 100% | residual activity [28] 67% | residual activity [29] 90% | residual activity [30] 88% | residual activity [31] 100% | residual activity [32] 65% | residual activity [33] 99% | residual activity [34] 76% | residual activity [35] 94% | residual activity [36] 56% | residual activity [37] 89% | inhibition [38] -4.55% | inhibition [39] -2.36%
